Like-named read-outs stand apart in the source and are kept apart here.
Key:
[1] = system: HIV-1; settings: OD converted to pg of protein; compared with vehicle alone
Experimental: Virus production (p24 release) was examined in an HIV-1-infected monocyte line. Cells were treated or not treated with HDAC-inhibitors and other compounds. P24 release expressed as optical density (“OD”) (FIG. 13), and then converted to pg of protein (FIG. 14). […] DMSO was vehicle for some of the compounds tested.

[2] = system: EBV TK; assay: TK mRNA level by reverse transcription and real-time PCR in P3HR1 cells; assay type: cell-based, Epstein-Barr virus
Experimental: To measure the relative level of TK mRNA in various total RNA preparations, reverse transcription and quantitative PCR using real time PCR technology was used. Five micrograms of total RNA was reverse-transcribed using random hexamer primers and Superscript III cDNA synthesis kit (Invitrogen). The cDNA was diluted to a final volume of 60 μl with sterile water, 8 μl of which was then used in each real time PCR reaction in an ABI 7500 […] using SYBR-Green technology. Primers used for the amplification of TK were EBV-TK1-F: 5′-[…]-3′; EBV-TK1-R: 5′-[…]-3′. The ß-actin mRNA level in those samples were determined similarly using ß-actin-specific primers Actin/hu-F: 5′-[…]-3′; Actin/hu-R: 5′-[…]-3′. The relative level of TK expression in a sample was calculated following normalization of ß-actin expression level.

[3] = system: P3HR1 cells; assay: Viable cell counts of P3HR1 cells (toxicity assays and combination treatment with GCV)
Experimental: The EBV-positive B lymphoma cell line P3HR1 was used throughout these assays. The P3HR1 cell line was originally derived from Burkitt's lymphoma patient. EBV maintains a latent state of replication in this cell line. Cells were maintained in RPMI 1640 with 10% fetal bovine serum containing 100 U penicillin per ml and 100 μg streptomycin per ml. The HDAC inhibitors used were from five different classes: a) short chain fatty acids, b) hydroxamic acids, c) benzamides, d) cyclic tetrapeptides, and e) largazoles.
Toxicity assays with two anti-herpesvirus drugs, Gancicovir (GCV) and Penciclovir (PCV), treated to P3HR1 cells alone was conducted as a control. A total of 3×10^5 P3HR1 cells were incubated with various concentrations of GCV or PCV and incubated for 6 days. Viable cell counts were measured and toxicity was expressed as percentage of cell growth compared to untreated cells.

[4] = system: EBV-TK; assay: Induction of EBV-TK activity in EBV-immortalized B-cells and patient-derived tumor cells; assay type: cell-based, Epstein-Barr virus; settings: preliminary in vitro studies
Text: In some embodiments, inducing agents include arginine butyrate and/or other histone deacetylase inhibitors. […] TK expression can be used as a point for attack by anti-viral agents, allowing for treatment of latent infections.
Treatment of patients with viral-associated tumors such as EBV with inducing agents such as arginine butyrate, to induce the expression of EBV-TK, and GCV, to eliminate EBV-TK expressing tumor cells, is an effective, non-toxic therapy. […] Without wishing to be bound by theory, it is believed that just the presence of the EBV genome in latent form would make the tumor susceptible to this combination protocol.

[5] = system: viral thymidine kinase; assay: Expression of viral thymidine kinase in EBV-infected lymphocytes; assay type: cell-based
Text: Three such examples are as follows. First, many of the RNA viruses such as HIV and other retroviruses require a reverse transcriptase to transcribe their genome into DNA. A few of the agents that induce expression or activity of retroviruses and their encoded genes, such as, for example, reverse transcriptase, are known to those of ordinary skill in the art. Anti-viral agents such as nucleoside analogs can be administered to the patient. Those substrate analogs will be specifically recognized by the reverse transcriptase that, when incorporated into the infected-cell genome, prevent viral replication and may also result in cell death. Second, many viruses require an active protease to assemble virus capsids to be packaged with viral genome. Protease inhibitors or proteases that alter cleavage patterns so that packaging cannot occur can be specifically targeted with an anti-viral agent that comprises an amino acid analog or toxic conjugate. […] Ganciclovir or famcyclovir, in the presence of the viral thymidine kinase or other viral kinases, destroys the infected cell. Treatment of infected cells with both agents, according to the invention, will selectively destroy EBV virus-infected cells. In another aspect, of infected cells with both agents, according to the invention, will selectively disable or disrupt the viral activity within the cells in vivo.

CCC(C)(C)C(=O)O [ST20, 2,2-dimethyl butyrate]
virus production (p24 release) [1]: increased viral production at levels similar to the control of vehicle alone

CC(/C=C/C(=O)NO)=C\[C@@H](C)C(=O)c1ccc(N(C)C)cc1 [TSA, trichostatin A]
virus production (p24 release) [1]: active

O=C(/C=C/c1cccc(S(=O)(=O)Nc2ccccc2)c1)NO [PXD101, Belinostat]
TK expression ([2]; 5 μM): high level of TK expression

Nc1ccccc1NC(=O)c1ccc(CNC(=O)OCc2cccnc2)cc1 [MS-275, 3-pyridinylmethyl [[4-[[(2-aminophenyl)amino]carbonyl]phenyl]methyl] carbamate]
TK expression ([2]; 500 nM and higher concentrations): strongly induced TK expression
TK expression ([2]; 6 hr post treatment): induced
sensitizing P3HR1 cells to GCV-mediated effects ([3]; 500 nM): as efficient as 1.0 mM NaB
sensitizing P3HR1 cells to GCV-mediated killing after short exposure ([3]; 24 hr exposure to MS-275+GCV, then GCV for up to 6 days): sensitized the cells to GCV-mediated effects as efficiently as a 72 hr continuous treatment

CCC(Nc1ncnc2ccccc12)C(=O)O (centres unmarked) [RB3]
virus production (p24 release) [1]: increased viral production at levels similar to the control of vehicle alone

CCCC(CCC)C(=O)O [VA, valproic acid]
TK expression (TK mRNA level) [2]: less efficient than NaB
reduction of cell growth in combination treatment with GCV [3]: very similar activity

Nc1nc2c(ncn2CCC(CO)CO)c(=O)[nH]1 [PCV, Penciclovir]
toxicity to P3HR1 cells (percentage of cell growth compared to untreated cells) [3]: less toxic to the cells compared to GCV
level of inhibition of cell growth at higher concentrations ([3]; in combination with Na-butyrate, concentrations higher than 40 μM): did not change significantly

CCCCCCCCCCCCCC(=O)O[C@@H]1[C@@H](C)[C@@]2(O)[C@@H](C=C(CO)C[C@]3(O)C(=O)C(C)=C[C@@H]23)[C@@H]2C(C)(C)[C@]12OC(C)=O [PMA, phorbol myristate acetate]
virus production (p24 release) [1]: active

Oxamflatin
reduction of cell growth in combination treatment with GCV [3]: synergistic activity with GCV
activity level (growth suppression) in combination with GCV ([3]; 200 nM): more than what typically seen with 1.0 mM NaB

CCC(=O)CCCCC[C@@H]1NC(=O)[C@H]2CCCCN2C(=O)[C@H]([C@@H](C)CC)NC(=O)[C@H](Cc2cn(OC)c3ccccc23)NC1=O [apicidin]
virus production (p24 release) [1]: active
cell growth without any GCV ([3]; 200 nM): significantly retarded
toxicity to the cells ([3]; 500 nM): very toxic to the cells
toxicity to the cells ([3]; apicidin alone, concentrations higher than 200 nM): quite toxic to the cells
reduction of cell growth over cells treated with apicidin alone ([3]; combination with GCV, 100 nM and 200 nM): 40-50%

arginine butyrate
virus production (p24 release) [1]: active
EBV-TK activity [4]: induces EBV-TK activity
expression of viral thymidine kinase and other viral protein kinases [5]: enhance expression

CCCC(=O)[O-].[Na+] [NaB, Na-butyrate]
optimal concentration for combination treatment with GCV [3]: 1.0 mM
cell growth with inducing agent alone ([3]; NaB alone at a concentration higher than 1.0 mM): reduces cell growth to a significant degree
synergistic effects of GCV ([3]; NaB at concentrations higher than 1.0 mM): lost

O=C(CCCCCCC(=O)Nc1ccccc1)NO [SAHA, suberoyl anilide hydroxamic acid]
TK expression (TK mRNA level) [2]: higher level than that seen with efficient concentrations of butyrate (1.0 mM)
reduction of cell growth in combination treatment with GCV [3]: less effective in reducing cell growth when combined with an antiviral agent compared to butyrate

CC(C)C(N)=O [isobutyramide]
expression of viral thymidine kinase and other viral protein kinases [5]: enhance expression

CCCCCCCC(=O)SCC/C=C/[C@@H]1CC(=O)NCc2nc(cs2)C2=N[C@@](C)(CS2)C(=O)N[C@@H](C(C)C)C(=O)O1 [largazole]
virus production (p24 release) [1]: active

O=C(CCCCCN1C(=O)c2cccc3cccc(c23)C1=O)NO [Scriptaid]
reduction of cell growth in combination treatment with GCV ([3]; especially at 500 nM and 1 μM): strong synergistic effect with GCV

Cc1[nH]c2ccccc2c1CCNCc1ccc(/C=C/C(=O)NO)cc1 [LHB589, panobinostat]
virus production (p24 release) [1]: active

From patent US11701363B2, “Methods for treating viral disorders” (TRUSTEES OF BOSTON UNIVERSITY, priority 2009, dated 2023)
